According to ChEMBL document CHEMBL1134022, “2-Acylimino-3H-thiazoline derivatives: a novel template for platelet GPIIb/IIIa receptor antagonists” (Bioorg Med Chem Lett, 2001):
Each block holds one compound with its values, some of them ahead of it.

Columns and labels:
[1] = molecular target: T1, Integrin alpha-IIb/beta-3 (Homo sapiens, UniProt P05106+P08514); assay: Affinity for purified activated GPIIb/IIIa fibrinogen receptor in ELISA; format: protein-complex assay
[2] = molecular target: T1, Integrin alpha-IIb/beta-3; assay: Binding to [125I]- fibrinogen by washed platelet fibrinogen receptor

T1 sequence (P05106 27-788 limits assumed): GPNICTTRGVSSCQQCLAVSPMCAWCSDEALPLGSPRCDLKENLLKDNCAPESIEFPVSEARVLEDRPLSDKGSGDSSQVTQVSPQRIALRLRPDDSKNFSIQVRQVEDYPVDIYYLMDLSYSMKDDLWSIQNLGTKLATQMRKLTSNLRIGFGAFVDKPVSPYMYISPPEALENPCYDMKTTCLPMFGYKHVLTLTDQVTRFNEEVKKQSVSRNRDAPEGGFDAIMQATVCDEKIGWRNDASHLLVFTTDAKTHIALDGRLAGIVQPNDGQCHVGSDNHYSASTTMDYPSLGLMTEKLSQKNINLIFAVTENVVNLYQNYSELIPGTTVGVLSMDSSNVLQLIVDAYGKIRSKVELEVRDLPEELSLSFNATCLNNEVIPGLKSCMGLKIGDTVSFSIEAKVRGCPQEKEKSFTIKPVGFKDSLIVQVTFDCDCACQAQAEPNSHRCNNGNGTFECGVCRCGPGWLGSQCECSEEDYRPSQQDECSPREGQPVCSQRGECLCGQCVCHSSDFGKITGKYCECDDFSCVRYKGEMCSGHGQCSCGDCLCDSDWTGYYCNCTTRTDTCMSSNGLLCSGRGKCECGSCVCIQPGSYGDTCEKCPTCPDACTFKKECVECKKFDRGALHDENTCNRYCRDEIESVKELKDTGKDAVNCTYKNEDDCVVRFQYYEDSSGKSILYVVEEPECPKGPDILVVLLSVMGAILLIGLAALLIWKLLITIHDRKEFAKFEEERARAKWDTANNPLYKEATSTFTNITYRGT
T1 sequence (P08514 32-887 limits assumed): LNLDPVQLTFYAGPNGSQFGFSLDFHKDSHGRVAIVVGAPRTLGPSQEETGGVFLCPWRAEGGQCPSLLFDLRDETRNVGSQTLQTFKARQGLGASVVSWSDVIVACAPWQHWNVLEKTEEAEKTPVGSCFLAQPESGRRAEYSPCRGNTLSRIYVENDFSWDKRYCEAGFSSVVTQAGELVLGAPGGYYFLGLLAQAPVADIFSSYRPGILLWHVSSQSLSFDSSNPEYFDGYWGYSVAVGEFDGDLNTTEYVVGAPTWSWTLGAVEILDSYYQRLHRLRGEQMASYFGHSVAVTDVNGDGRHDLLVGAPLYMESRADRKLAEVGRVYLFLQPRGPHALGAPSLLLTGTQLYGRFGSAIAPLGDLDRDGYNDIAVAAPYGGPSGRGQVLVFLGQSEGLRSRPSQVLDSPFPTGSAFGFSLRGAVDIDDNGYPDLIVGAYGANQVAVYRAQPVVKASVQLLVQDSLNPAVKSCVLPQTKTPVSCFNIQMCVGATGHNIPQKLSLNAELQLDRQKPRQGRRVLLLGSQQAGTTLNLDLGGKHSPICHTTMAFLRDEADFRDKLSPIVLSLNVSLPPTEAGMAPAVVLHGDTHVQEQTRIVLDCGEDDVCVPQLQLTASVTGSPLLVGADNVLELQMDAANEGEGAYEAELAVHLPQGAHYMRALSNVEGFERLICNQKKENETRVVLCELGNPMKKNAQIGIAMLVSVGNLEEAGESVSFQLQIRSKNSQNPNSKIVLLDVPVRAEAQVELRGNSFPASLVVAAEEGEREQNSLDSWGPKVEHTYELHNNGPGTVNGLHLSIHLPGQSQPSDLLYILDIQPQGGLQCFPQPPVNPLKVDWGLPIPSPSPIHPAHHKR
T1 sequence (P08514 891-1039 limits assumed): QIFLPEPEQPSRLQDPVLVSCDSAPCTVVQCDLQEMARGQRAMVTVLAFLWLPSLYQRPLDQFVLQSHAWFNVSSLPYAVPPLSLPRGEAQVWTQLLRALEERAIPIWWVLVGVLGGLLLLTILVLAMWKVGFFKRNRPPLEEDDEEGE

Structure (SMILES): Cc1nc(NC(=O)c2ccc(C(=N)N)cc2)sc1CCC(=O)O
IC50 [1]: 0.57 nM | IC50 [2]: 60.5 nM

Structure (SMILES): Cc1nc(N(C)C(=O)c2ccc(C(=N)N)cc2)sc1CCC(=O)O
IC50 [1]: 1 nM

Structure (SMILES): Cc1c(C(=O)N(C)CCC(=O)O)s/c(=N\C(=O)c2ccc(C(=N)N)cc2)n1C
IC50 [1]: 0.89 nM | IC50 [2]: 51.8 nM

Structure (SMILES): Cn1c2c(s/c1=N\C(=O)c1ccc(C(=N)N)cc1)C(=O)N(CCC(=O)O)C2
IC50 [1]: 4.76 nM | IC50 [2]: 67.9 nM

Structure (SMILES): N=C(N)c1ccc(C(=O)Nc2cccc(CCC(=O)O)c2)cc1
IC50 [1]: 0.55 nM | IC50 [2]: 105 nM

Now those with a lower IC50 [1], led by results:

IC50 [1]: 0.13 nM | IC50 [2]: 6.26 nM
Structure (SMILES): CCCCn1c(C)c(C(=O)NCCC(=O)O)s/c1=N\C(=O)c1ccc(C(=N)N)cc1

IC50 [1]: 0.12 nM
Structure (SMILES): CCn1c(C)c(C(=O)NCCC(=O)O)s/c1=N\C(=O)c1ccc(C(=N)N)cc1

IC50 [1]: 0.09 nM
Structure (SMILES): Cc1c(C(=O)NCCC(=O)O)s/c(=N\C(=O)c2ccc(C(=N)N)cc2)n1Cc1ccccc1
